In ChEMBL document CHEMBL4808173, “Discovery of Novel Benzimidazole and Indazole Analogues as Tubulin Polymerization Inhibitors with Potent Anticancer Activities” (J Med Chem, 2021):
pIC50: −log10 of the molar value. Activity calls are given as the source filed them. The rule behind the calls is not given here.

Tests used:
[1] = tested on: MCF7; assay: Antiproliferative activity against human MCF7 cells assessed as reduction in cell viability measured after 48 hrs by MTT assay; assay type: functional, cell-based; details: MCF7, 48 h
[2] = tested on: B16-F10; assay: Antiproliferative activity against mouse B16-F10 cells assessed as reduction in cell viability measured after 48 hrs by MTT assay; assay type: functional, cell-based; details: B16-F10, 48 h
[3] = tested on: A549; assay: Antiproliferative activity against human A549 cells assessed as reduction in cell viability measured after 48 hrs by MTT assay; assay type: functional, cell-based; details: A549, 48 h
[4] = tested on: HeLa; assay: Antiproliferative activity against human HeLa cells assessed as reduction in cell viability measured after 48 hrs by MTT assay; assay type: functional, cell-based
[5] = tested on: A2780/Taxol; assay: Antiproliferative activity against human A2780T cells assessed as reduction in cell viability measured after 48 hrs by MTT assay; assay type: functional, cell-based
[6] = tested on: A2780S; assay: Antiproliferative activity against human A2780S cells assessed as reduction in cell viability measured after 48 hrs by MTT assay; assay type: functional, cell-based
[7] = tested on: A2780/Taxol; assay: Inhibition of colony formation in human A2780T cells assessed as decrease in colonies at 100 nM measured after 24 hrs by photographic imaging analysis; assay type: functional, cell-based
[8] = Resistance index, ratio of IC50 for antiproliferative activity against human A2780T cells assessed as reduction in cell viability measured after 48 hrs by MTT assay to IC50 for antiproliferative activity against human A2780S cells assessed as reduction in cell viability measured after 48 hrs by MTT assay; assay type: functional
[9] = tested on: B16-F10; assay: Antitumor activity against mouse B16-F10 cells inoculated in BALB/c mouse assessed as tumor growth inhibition at 10 mg/kg, ip qd for 14 days by caliper method relative to control; assay type: functional; details: 336 h, time 14 day, read-out: TGI

SMILES | pIC50 [1] | pIC50 [2] | pIC50 [3] | pIC50 [4] | pIC50 [5] | pIC50 [6] | inhibition [7] | Ratio IC50 [8] | inhibition in vivo at 10 mg/kg [9] [%]
COc1cc(-c2n[nH]c3ccc(-c4ccc(C#N)cc4)cc23)cc(OC)c1OC | 5.98 | 5.85 | 5.99 | 5.68 | – | – | – | – | –
COc1cc(-c2n[nH]c3ccc(-c4cccc(C(=N)NO)c4)cc23)cc(OC)c1OC | < 5.00 | 5.10 | 5.20 | 5.33 | – | – | – | – | –
COc1cc(-c2nccn3c(-c4cc(OC)c(OC)c(OC)c4)cnc23)cc(OC)c1OC | < 5.00 | < 5.00 | < 5.00 | < 5.00 | – | – | – | – | –
COc1cc(-c2n[nH]c3ccc(-c4cccc(C#N)c4)cc23)cc(OC)c1OC | 5.62 | 5.77 | 5.98 | 5.69 | – | – | – | – | –
COc1cc(-c2cccc3[nH]c(-c4ccc5c(ccn5C)c4)nc23)cc(OC)c1OC | 6.15 | 6.13 | 5.58 | 5.81 | – | – | – | – | –
COc1cc(-c2ccnc3cc(-c4ccc5cnn(C)c5c4)nn23)cc([Se]C)c1OC | 5.93 | 5.43 | 5.90 | 5.43 | – | – | – | – | –
COc1cc2c(c(OC)c1OC)-c1ccc(OC)c(=O)cc1[C@@H](NC(C)=O)CC2 [COLCHICINE] | 7.68 | 7.08 | – | 7.08 | 6.11 | 7.78 | – | – | –
COc1cc(-c2cccc3[nH]c(-c4ccc(C#N)cc4)nc23)cc(OC)c1OC | < 5.00 | < 5.00 | < 5.00 | < 5.00 | – | – | – | – | –
COc1cc(-c2ccc3[nH]nc(-c4ccc(C)cc4)c3c2)cc(OC)c1OC | < 5.00 | < 5.00 | < 5.00 | < 5.00 | – | – | – | – | –
COc1cc(-c2ccnc3cc(-c4ccc(C)cc4)nn23)cc([Se]C)c1OC | 6.77 | 6.35 | 6.64 | 6.35 | – | – | – | – | –
COc1ccc(-c2n[nH]c3ccc(-c4cc(OC)c(OC)c(OC)c4)cc23)cc1 | < 5.00 | < 5.00 | < 5.00 | < 5.00 | – | – | – | – | –
COc1ccc(-c2ccc3[nH]nc(-c4cc(OC)c(OC)c(OC)c4)c3c2)cc1 | 7.43 | 6.79 | 6.72 | 6.88 | – | – | – | – | –
COc1cc(-c2cnc3c(-c4ccc5c(ccn5C)c4)nccn23)cc(OC)c1OC | < 5.00 | < 5.00 | < 5.00 | < 5.00 | – | – | – | – | –
COc1cc(-c2cccc3[nH]c(-c4ccc(C(=N)NO)cc4)nc23)cc(OC)c1OC | < 5.00 | < 5.00 | < 5.00 | < 5.00 | – | – | – | – | –
COc1cc(-c2ccc3[nH]nc(-c4cc(OC)c(OC)c(OC)c4)c3c2)cc(OC)c1OC | < 5.00 | 5.14 | 5.10 | 5.06 | – | – | – | – | –
CCCCn1ccc2c(-c3nc4c(-c5cc(OC)c(OC)c(OC)c5)cccc4[nH]3)cccc21 | < 5.00 | < 5.00 | < 5.00 | < 5.00 | – | – | – | – | –
COc1cc(-c2ccnc3cc(-c4ccccc4)nn23)cc([Se]C)c1OC | 5.50 | 5.15 | < 5.00 | 5.15 | – | – | – | – | –
COc1cc(-c2ccc3[nH]nc(-c4ccc(F)cc4)c3c2)cc(OC)c1OC | < 5.00 | < 5.00 | < 5.00 | < 5.00 | – | – | – | – | –
COc1cc(-c2n[nH]c3ccc(-c4ccc(F)cc4)cc23)cc(OC)c1OC | 6.22 | 6.20 | 6.12 | 6.03 | – | – | – | – | –
COc1cc(-c2ccnc3cc(-c4cn(CO)c5ccccc45)nn23)cc([Se]C)c1OC | 6.50 | 6.07 | 6.65 | 6.07 | – | – | – | – | –
Cn1ccc2cc(-c3nccn4c(-c5ccc6c(ccn6C)c5)cnc34)ccc21 | < 5.00 | < 5.00 | < 5.00 | < 5.00 | – | – | – | – | –

SMILES | pIC50 [1] | pIC50 [2] | pIC50 [3] | pIC50 [4] | pIC50 [5] | pIC50 [6] | inhibition [7] | Ratio IC50 [8] | inhibition in vivo at 10 mg/kg [9] [%]
COc1cc(-c2cccc3[nH]c(-c4cccc(C#N)c4)nc23)cc(OC)c1OC | < 5.00 | 5.21 | < 5.00 | 5.21 | – | – | – | – | –
COc1cc(-c2cccc3[nH]c(-c4cccc(C(=N)NO)c4)nc23)cc(OC)c1OC | < 5.00 | < 5.00 | < 5.00 | < 5.00 | – | – | – | – | –
COc1cc(-c2ccc3[nH]nc(-c4cccc(C#N)c4)c3c2)cc(OC)c1OC | < 5.00 | < 5.00 | < 5.00 | < 5.00 | – | – | – | – | –
COc1cc(-c2ccnc3cc(-c4ccc(S(C)(=O)=O)cc4)nn23)cc([Se]C)c1OC | 5.50 | 5.07 | 5.16 | 5.07 | – | – | – | – | –
COc1ccc(-c2cc3nccc(-c4cc(OC)c(OC)c([Se]C)c4)n3n2)cc1[N+](=O)[O-] | 5.21 | 5.10 | < 5.00 | 5.10 | – | – | – | – | –
COc1cc(-c2n[nH]c3ccc(-c4ccc(C)cc4)cc23)cc(OC)c1OC | 7.37 | 7.27 | 6.27 | 6.58 | – | – | – | – | –
COc1cc(-c2ccc3[nH]nc(-c4ccc5c(ccn5C)c4)c3c2)cc(OC)c1OC | 5.00 | 5.03 | < 5.00 | 5.10 | – | – | – | – | –
COc1cc(-c2ccnc3cc(-c4ccc5c(ccn5C)c4)nn23)cc([Se]C)c1OC | 6.91 | 6.90 | 6.43 | 6.90 | – | – | – | – | –
COc1cc(-c2ccc3[nH]nc(-c4cccc(C(=N)NO)c4)c3c2)cc(OC)c1OC | < 5.00 | < 5.00 | < 5.00 | < 5.00 | – | – | – | – | –
COc1cc(-c2ccc3[nH]nc(-c4ccc(C#N)cc4)c3c2)cc(OC)c1OC | < 5.00 | < 5.00 | < 5.00 | < 5.00 | – | – | – | – | –
COc1cc(-c2n[nH]c3ccc(-c4ccc5c(cnn5C)c4)cc23)cc(OC)c1OC | 6.44 | 5.58 | 5.21 | 5.69 | – | – | – | – | –
COc1cc(-c2n[nH]c3ccc(-c4ccc(C(=N)NO)cc4)cc23)cc(OC)c1OC | 5.50 | 5.79 | 5.53 | 5.42 | – | – | – | – | –
COc1cc(-c2n[nH]c3ccc(-c4ccccc4)cc23)cc(OC)c1OC | 6.61 | 6.40 | 6.35 | 6.26 | – | – | – | – | –
COc1cc(-c2ccc3[nH]nc(-c4ccc(C(=N)NO)cc4)c3c2)cc(OC)c1OC | < 5.00 | < 5.00 | < 5.00 | < 5.00 | – | – | – | – | –
COc1cc(-c2n[nH]c3ccc(-c4ccc5c(ccn5C)c4)cc23)cc(OC)c1OC | 7.59 | 7.19 | 7.03 | 6.85 | – | – | – | – | –
COc1cc(-c2cccc3[nH]c(-c4cn(C)c5ccccc45)nc23)cc(OC)c1OC | 6.75 | 6.20 | 6.00 | 6.01 | – | – | – | – | –
CC(=O)O[C@H]1C(=O)[C@@]2(C)[C@H]([C@H](OC(=O)c3ccccc3)[C@]3(O)C[C@H](OC(=O)[C@H](O)[C@@H](NC(=O)c4ccccc4)c4ccccc4)C(C)=C1C3(C)C)[C@]1(OC(C)=O)CO[C@@H]1C[C@@H]2O [PACLITAXEL] | – | – | – | – | 5.50 | 8.12 | inactive | 421.8 | 88.7
COc1cc(-c2nccn3c(-c4ccc5c(ccn5C)c4)cnc23)cc(OC)c1OC | < 5.00 | < 5.00 | < 5.00 | < 5.00 | – | – | – | – | –
COc1cc(-c2ccnc3cc(-c4c[nH]c5ccccc45)nn23)cc([Se]C)c1OC | 6.46 | 6.18 | 6.44 | 6.18 | – | – | – | – | –
COc1cc(-c2ccc3[nH]nc(-c4ccccc4)c3c2)cc(OC)c1OC | < 5.00 | < 5.00 | < 5.00 | < 5.00 | – | – | – | – | –
